Measured values reported in paper PMC4021201, “Repositioning: the fast track to new anti-malarial medicines?” (Malaria Journal, 2014).
pEC50: −log10 of the molar value. Where “and” joins values, the source holds several entries; their conditions need not be identical. Equal entries are not always repeated. Where two headings read alike, the source gives them in different places.

Key:
P. falciparum NF54 = assay: SYBR I EC50 determination assay (AstraZeneca); format: cell-based; conditions: Plasmodium falciparum; P. falciparum strain NF54; 72 h; read-out: Pf EC50
Description: (§1) AZ also used a SYBR® I EC50 determination assay, but with P. falciparum NF54 (MRA-1000, MR4, ATCC, Manassas, VA, USA). The per cent inhibition with respect to the control was plotted against the logarithm of the drug concentration. The curve was fitted by non-linear regression using the sigmoidal dose–response (variable slope) formula to yield the concentration–response curves. The concentration at which 50% inhibition was observed was taken as the EC50 value of the compound. A cytotoxicity assay was also performed by AZ, using the human hepatoma Hep G2 cell line and the per cent inhibition and EC50 values were calculated as described for P. falciparum.
AstraZeneca. This group also used a SYBR® I IC50 determination assay. Compounds were serially diluted in 384 well plates (C3570, Corning Life Sciences). 1 µL of compound was dispensed in a 10 point concentration response format using a Biomek Fx liquid dispenser. To this, 50 µL of P. falciparum NF54 (MRA-1000, MR4, ATCC, Manassas, Virginia) ring stage culture at 2% parasitemia and 0.3 % hematocrit was added using a multidrop dispenser. […] After incubation, the % parasitemia in one of the untreated culture control wells was determined by light microscopy. […] Green fluorescence (485 nm excitation/ 530 nm emission) was measured using the Safire 2 fluorimeter (Tecan Instruments). […]

P. berghei = assay: Plasmodium berghei four-day suppression test; format: in vivo; conditions: 100–200 mg/kg BID oral, four days, BALB/c mice, with oral aminobenzotriazole 100 mg/kg
Protocol: AZ compounds were tested by the company for in vivo efficacy in a standard four-day suppression test using the rodent malaria parasite P. berghei. All animal experimentation protocols were approved by the Institutional Animal Ethics Committee registered with the Government of India (Registration No: 5/1999/CPCSEA). Adult male BALB/c mice (purchased from RCC Laboratories, Hyderabad, India) were used for efficacy studies. Animals were randomly distributed to cages quarantined for one week with veterinary examination and then taken into experimentation. Feed and water were given ad libitum. Briefly, male BALB/c mice were infected intraperitoneally with 2×10^7 infected erythrocytes on day 0. […] On day 3, per cent parasitaemia was estimated microscopically from a Giemsa-stained blood smear. The effect of the test compound on parasite growth was calculated as the difference between the mean value of the control group (taken as 100%) and those of the experimental group and expressed as per cent reduction. Reference anti-malarial compounds (chloroquine and artemisinin) were used as positive controls and the results obtained matched those published in the literature. Pharmacokinetics were analysed in healthy as well as infected mice. Data from healthy mice were used for designing the dosing regimen for the efficacy studies. […]

[1] = tested on: human hepatoma Hep G2 cell line; assay: Hep G2 cytotoxicity assay (AstraZeneca); format: cell-based; conditions: HepG2, 72 h
Description: as §1
The human hepatoma Hep G2 cell line was used for the cytotoxicity assay. 1 µL of compound was dispensed in a 10 point concentration response format using a Biomek Fx liquid dispenser into white sterile 384-well opaque bottom plates (C3570, Corning Life Sciences). To this, 50 µL of Hep G2 cells at 3000 cells/well was added using a Multidrop dispenser. The plates were then incubated at 37 °C for 72 h in a 5% CO2 incubator. Resazurin at a final concentration of 10 µM was added to all wells and the plates were incubated at room temperature for 4 h. Fluorescence (excitation 535 nm; emission 590 nm) was measured in a Safire 2 fluorimeter. The % inhibition with respect to the control was plotted against the logarithm of the drug concentration. […]

P. falciparum K1 = assay: SYBR I dye DNA staining assay (Pfizer), P. falciparum K1; conditions: Plasmodium falciparum, K1, read-out: EC50 K1
Protocol: (§2) Cultures of P. falciparum 3D7 and K1 (both from David Baker, LSHTM) were maintained in O+ human erythrocytes (Research Red Cells and Blood Transfusion Service). 384-well assay plates contained 250 nL of compound at a serial dilution of 1:3 in 100% DMSO, starting from 200 µM (in the plate i.e. 20 µM final) and minimum and maximum controls. After addition of 50 μL of infected erythrocytes per well, plates were incubated at 37°C for three days in 5% CO2, 5% O2 and 90% N2. […] Percent anti-malarial activity was calculated relative to the minimum and maximum controls for each of the 11 drug concentrations and EC50 values determined from the resulting data plot.

[2] = design: method as in data provided by Pfizer; conditions: human, single doses from 10 mg to 480 mg; ref data provided by Pfizer; cited from earlier work
P. falciparum 3D7 = assay: SYBR I dye DNA staining assay (Pfizer), P. falciparum 3D7; conditions: Plasmodium falciparum, 3D7, read-out: EC50 3D7
Protocol: as §2

hERG = hERG (Homo sapiens, UniProt Q12809); assay: Independently run hERG assay
[3] = tested on: P. falciparum Pf3D7^0087/N9; assay: Plasmodium falciparum huSCID humanized mouse model, four-day test
Protocol: In vivo testing using this model was performed by GSK at Tres Cantos, against P. falciparum 3D7 (in vivo strain Pf3D7^0087/N9generated by GSK using Pf3D7 obtained from Eduardo Dei-Cas, Institute Pasteur, Lille, France [36]) growing in peripheral blood of female NOD-scid IL-2Rγ^null mice engrafted with human erythrocytes, i e, a ‘humanized’ mouse model, following published protocols [36, 37]. Briefly, animals were infected intravenously with 20×10^6 infected erythrocytes on day 0. […] Dosing was initiated at the maximum tolerated dose in mice on day 3 after infection and continued once daily for four days. Each experimental group was n = 3 mice unless otherwise stated. Control animals received vehicle only and a quality control assay used chloroquine at target doses of 3 mg/kg and 7 mg/kg. Venous blood samples for parasitology (2 μL) were taken at days 3, 5, and 7 after infection. Anti-malarial efficacy was assessed using a standard four-day test (i e, at day 7) and blood parasitaemia was measured by fluorescence-activated cell sorting (FACS) analysis [38]. The limit of detection (per cent of P. falciparum) was 0.01%. The number of parasites ×10^6 cells was recorded and data were analysed by non-linear fitting to a logistic equation of log10 (per cent parasitaemia at day 7 after infection) versus the dose level administered.
Per cent parasitaemia at day 7 after infection in treated versus control animals was analysed using a one factor ANOVA with Tukey’s post-test analysis. […] ED90 was calculated similarly. Analysis was performed using WinNonlin 5.2 and GraphPad Prism 5.0.

[4] = Pharmacokinetics in P. falciparum-infected humanized mice; conditions: for Cmax / Tmax: NOD-scid IL-2Rγ^null, mouse, po; for Cmax / Tmax / AUC (0–t): whole blood; for DNAUC(0–t): dose-normalized AUC(0–t); for DNAUC(0–t) / AUC (0–t): mean (SD)
Protocol: The pharmacokinetics of compounds after oral administration was determined concurrently in the same mice used for the therapeutic efficacy assay. Samples were taken at 0.25, 0.5, 1, 3, 6, 8, and 24 hours after the first dose. Compound levels were measured in 25 μL blood samples that were mixed with 25 μL of saponin (0.1% in water) and processed under standard liquid–liquid extraction conditions [39]. Pharmacokinetic parameters were calculated using WinNonlin 5.2 non-compartmental analysis.

hERG, sequence (Q12809 whole entry): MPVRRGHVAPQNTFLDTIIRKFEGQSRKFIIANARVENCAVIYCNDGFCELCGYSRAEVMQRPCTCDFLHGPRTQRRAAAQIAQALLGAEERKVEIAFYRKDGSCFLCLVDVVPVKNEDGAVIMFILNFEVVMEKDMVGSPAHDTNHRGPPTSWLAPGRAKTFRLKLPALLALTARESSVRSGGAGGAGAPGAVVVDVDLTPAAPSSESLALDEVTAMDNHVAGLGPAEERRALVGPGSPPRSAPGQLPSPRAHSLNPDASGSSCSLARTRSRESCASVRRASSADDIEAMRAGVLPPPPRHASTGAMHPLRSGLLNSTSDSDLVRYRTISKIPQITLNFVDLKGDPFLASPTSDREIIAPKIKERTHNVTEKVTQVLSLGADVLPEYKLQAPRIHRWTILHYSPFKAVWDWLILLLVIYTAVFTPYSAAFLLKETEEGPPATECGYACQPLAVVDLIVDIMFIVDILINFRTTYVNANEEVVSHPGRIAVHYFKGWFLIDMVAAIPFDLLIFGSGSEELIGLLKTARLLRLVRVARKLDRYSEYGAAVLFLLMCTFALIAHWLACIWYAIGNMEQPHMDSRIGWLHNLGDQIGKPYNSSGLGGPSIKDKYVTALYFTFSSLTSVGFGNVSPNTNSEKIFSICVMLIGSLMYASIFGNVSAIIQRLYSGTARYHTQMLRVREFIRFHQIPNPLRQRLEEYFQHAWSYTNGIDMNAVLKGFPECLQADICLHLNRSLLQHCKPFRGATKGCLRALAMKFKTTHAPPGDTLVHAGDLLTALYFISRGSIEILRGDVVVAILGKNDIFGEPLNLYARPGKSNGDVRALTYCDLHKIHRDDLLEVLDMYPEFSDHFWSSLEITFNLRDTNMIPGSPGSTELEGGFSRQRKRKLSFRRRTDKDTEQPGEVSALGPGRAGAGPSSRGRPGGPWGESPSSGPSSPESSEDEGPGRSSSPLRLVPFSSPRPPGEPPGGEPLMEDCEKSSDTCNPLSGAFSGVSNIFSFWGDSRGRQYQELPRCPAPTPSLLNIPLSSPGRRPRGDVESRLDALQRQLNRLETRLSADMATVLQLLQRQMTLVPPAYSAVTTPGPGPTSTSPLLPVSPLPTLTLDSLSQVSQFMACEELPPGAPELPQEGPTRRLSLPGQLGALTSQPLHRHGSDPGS

Row | SMILES | pEC50 (P. falciparum NF54) | growth inhibition in P. berghei-infected mice (P. berghei) | pEC50 [1] | pEC50 (P. falciparum K1) | Cmax [2] | pEC50 (P. falciparum 3D7) | hERG (hERG) | ED50 ([3]; Plasmodium falciparum, in Mus musculus, parasitaemia at day 7 after infection, once daily for four days, mean (95% CI)) | AUCED90 ([3]; blood exposure needed to inhibit parasitaemia at day 7 by 90% vs vehicle) | ED90 ([3]; parasitaemia at day 7 after infection, once daily for four days, mean (95% CI)) | Cmax ([4]; 100 mg/kg) | Tmax ([4]; 100 mg/kg) | Cmax ([4]; 300 mg/kg) | Tmax ([4]; 300 mg/kg) | DNAUC(0–t) ([4]; target dose 100 mg/kg oral) | DNAUC(0–t) ([4]; target dose 300 mg/kg oral) | AUC (0–t) ([4]; target dose 100 mg/kg oral) | AUC (0–t) ([4]; target dose 300 mg/kg oral)
1 | CC(C)Oc1cc(Nc2nc(N[C@@H](C)c3ccc(F)cn3)ncc2Cl)n[nH]1 [AZ-1] | 6.22 | 50–60% | 4.98 | – | – | – | – | – | – | – | – | – | – | – | – | – | – | –
2 | Cc1nc2cnccc2n1-c1ccc(C(=O)N2CCC(=C3c4ccc(Cl)cc4CCc4cccnc43)CC2)cc1 [UK-112,214] | – | – | – | 6.22 | 14 to 4145 ng/mL | 6.26 | 2.8 µM | 80.6 mg/kg | 111.5 μg · h · mL^−1 · day^−1 and 111.5 (106.6, 121.1) μg · h · mL^−1 · day^−1 | 131.3 mg/kg and 131.3 (112.3, 156.7) mg/kg | 8610 ng/mL | 4 h | 17600 ng/mL | 3.3 h | 0.859 (0.32) μg · h · mL^−1 · day^−1 | 1.03 (0.45) μg · h · mL^−1 · day^−1 | 72.1 (2.7) μg · h · mL | 231 (101) μg · h · mL
